Entries after “also recorded” stand apart in the source; their conditions may differ.
What was measured:
[1] = system: humoral response to HBsAg (anti-HBsAg antibodies); experiment: Humoral response (anti-HBsAg antibody titers by ELISA) in mice immunized i.m. with HBsAg plus adjuvant; assay type: in vivo, BALB/c mice; conditions: for mean anti-HBsAg titer: 3 weeks post-immunization, approx. 18 nmol compound per mouse with alum and 1 μg HBsAg (FIG. 4); for speed of immune response vs alum control: titers at 2 to 3 weeks, p<0.05, approx. 18 nmol per mouse with alum
Protocol: Immunization with HBsAg was conducted on groups of (n=4 or 5) 6- to 8-week old female BALB/c mice (Harlan) as described in, Davis et al., 1996. Each solution contained 1 μg recombinant HBsAg protein (ayw subtype; Genzyme) in a total volume of 50 μl, and 25 μl of each antigen solution was injected into both the left and right tibialis anterior muscles. […] This is the same ratio as used in the commercial hepatitis B vaccines (Davis et al., 1996). […] (Oligonucleotide 1826, previously described in Davis et al., 1996, contains a nuclease-resistant phosphorothioate modified backbone).
The ELISA method was used to evaluate the immune response to a combination of ppGpp and pppGpp and the immune response to ppGpp alone. Kinetics and magnitude of the immune response generated by the nucleotide ppGpp versus an oligonucleotide containing CpG were also determined from the data generated by ELISA. For the isotyping ELISAs the Immunopure Monoclonal Antibody Isotyping Kit I (HRP/ABTS) from Pierce was modified and used.
For measuring humoral response to HBsAg blood was recovered from mice by tail vein bleeds at various times after immunization. The blood was clotted at room temperature for >2 hours, and centrifuged twice at 13 krpm for 10 minutes to separate the serum. Antibodies specific to HBsAg were detected by ELISA, and were quantified relative to a monoclonal antibody against HBsAg (IgG1, 10^10 affinity constant, ad+ay; Genzyme). A solid phase of recombinant HBsAg protein (100 μl of 1 μg/ml per well, overnight at 4° C.) was used to capture anti-HBsAg in the plasma (overnight at 4° C.), which was then detected with HRP-conjugated rabbit anti-mouse IgG+IgM. (1:10,000 in PBS/0.1% Tween/2% BSA; 100 μl per well; Pierce), followed by the sequential addition of 3 3′,5,5′-tetramethylbenzidine solution (50 μl/well, 10 minutes at room temperature; Calbiochem) and 0.25M HCl (50 μl/well). Absorbance was measured at 450 nm within 10 minutes of adding the final reagent. Anti-HB titers are expressed as group means +/−standard error (SE) of individual animals values, which are in turn averages of triplicate assays.

[2] = Tolerability / signs of toxicity in immunized mice; assay type: in vivo; conditions: up to 250 μg ppGpp per mouse i.m.

Compound: Nc1nc2c(ncn2[C@@H]2O[C@H](COP(=O)(O)OP(=O)(O)OP(=O)(O)O)[C@@H](O)[C@H]2O)c(=O)[nH]1 [GTP, reference compound]
- adjuvant effect on humoral response ([1]; 10 μg (18 nmol) GTP with alum and HBsAg (FIG. 4E)): modest at best

Compound: Nc1nc2c(ncn2[C@@H]2O[C@H](COP(=O)(O)OP(=O)(O)O)[C@@H](OP(=O)(O)OP(=O)(O)O)[C@H]2O)c(=O)[nH]1 [ppGpp, Guanosine 5′-diphosphate 2′(3′)-diphosphate]
- effect upon the humoral response ([1]; 2 μg ppGpp plus alum (FIG. 3C)): did not have a significant effect
- effect upon the humoral response ([1]; 50 μg ppGpp plus alum (FIG. 3E)): did not have a significant effect
- effect upon the humoral response ([1]; 250 μg ppGpp plus alum (FIG. 3F vs 3B)): appeared to suppress the alum-induced adjuvant effect
- mean anti-HBsAg titer [1]: 161 ± 42 ng/mL
- anti-HBsAg titer, ppGpp group vs alum group ([1]; 4 weeks post-immunization, ppGpp 10 μg plus alum (FIG. 3B vs 3D)): trend was still present
- anti-HBsAg titer, ppGpp group vs alum group ([1]; 6 weeks post-immunization, ppGpp 10 μg plus alum): comparable titer levels
- maximal anti-HBsAg titer level ([1]; 10 weeks post-immunization, HBsAg plus alum, ppGpp 10 μg): 2316 ± 1764 ng/mL
- time course of humoral response, ppGpp vs unmethylated CpG oligonucleotide (oligo 1826) ([1]; ppGpp 10 μg vs oligo 10 μg, with alum (FIG. 5)): did not appear to differ
- effect of natural ppGpp vs predicted response of natural CpG oligonucleotide ([1]; predicted response, dotted line of FIG. 5): much greater effect
- speed of immune response vs alum control [1]: more rapid immune response
- optimal dosage per mouse ([1]; titration 2, 10, 50, 250 μg ppGpp with alum and 1 μg HBsAg (FIGS. 3C-3F)): 10 µg
- mean ELISA titer of anti-HBsAg antibodies ([1]; two weeks after injection, HBsAg plus alum, ppGpp 10 μg, p=0.04 (FIG. 3B, 3D)): 83 ± 37 ng/mL
- tolerability / signs of toxicity (ruffling of fur, diarrhea) [2]: well tolerated; also recorded: no signs of toxicity were observed

Compound: Nc1nc2c(ncn2[C@@H]2O[C@H](COP(=O)(O)OP(=O)(O)OP(=O)(O)O)[C@@H](OP(=O)(O)OP(=O)(O)O)[C@H]2O)c(=O)[nH]1 [pppGpp, Guanosine 5′-triphosphate 2′(3′)-diphosphate]
- mean anti-HBsAg titer [1]: 136 ± 33 ng/mL
- speed of immune response vs alum control [1]: more rapid immune response

Reference: patent publication US6562801B1, “PpGpp and pppGpp as immunomodulatory agents” (Board of Regents, The University of Texas System, priority 1999, dated 2003)
